Data reported in PubChem BioAssay AID1259407 (Chemical Carcinogenesis Research Information System (CCRIS), 2018).
Activity calls are given as the source filed them. The rule behind the calls is not given here.

System: CCRIS mutagenicity, Ames/micronucleus/aberration tests
Assay: CCRIS mutagenicity studies
[1] = Test System: AMES SALMONELLA TYPHIMURIUM, Strain/Indicator: TA100, Metabolic Activation: NONE, Method: STANDARD PLATE
[2] = Test System: AMES SALMONELLA TYPHIMURIUM, Strain/Indicator: TA98, Metabolic Activation: NONE, Method: PREINCUBATION
[3] = Test System: AMES SALMONELLA TYPHIMURIUM, Strain/Indicator: TA100, Metabolic Activation: NONE, Method: PREINCUBATION
[4] = Test System: AMES SALMONELLA TYPHIMURIUM, Strain/Indicator: TA1535, Metabolic Activation: NONE, Method: STANDARD PLATE
[5] = Test System: AMES SALMONELLA TYPHIMURIUM, Strain/Indicator: TA100, Metabolic Activation: HAMSTER, LIVER, S-9, AROCLOR 1254 (30%), Method: PREINCUBATION
[6] = Test System: AMES SALMONELLA TYPHIMURIUM, Strain/Indicator: TA100, Metabolic Activation: RAT, LIVER, S-9, AROCLOR 1254 (30%), Method: PREINCUBATION

With `Cc1c2ccncc2c(C)c2c1[nH]c1ccccc12` the mutagenic call (Test System: AMES SALMONELLA TYPHIMURIUM, Strain/Indicator: TA98, Metabolic Activation: RAT, LIVER, S-9, AROCLOR 1254, Method: STANDARD PLATE) was “active; positive”, the mutagenic call (Test System: AMES SALMONELLA TYPHIMURIUM, Strain/Indicator: TA102, Metabolic Activation: NONE, Method: STANDARD PLATE) was “active; positive” and the mutagenic call (Test System: CHINESE HAMSTER V-79, Strain/Indicator: V-79 (HPRT)/6-THIOGUANINE, Metabolic Activation: NONE) was “inactive; negative”. For the same compound, the mutagenic call (Test System: E. COLI, Strain/Indicator: WP2 TM9, Metabolic Activation: NONE, Method: STANDARD PLATE) was “inactive; negative”, the mutagenic call (Test System: MOUSE LYMPHOMA, Strain/Indicator: L5178Y (HPRT)/6-THIOGUANINE, Metabolic Activation: NONE, Method: FLUCTUATION TEST) was “inactive; negative” and the mutagenic call (Test System: MOUSE LYMPHOMA, Strain/Indicator: L5178Y (TK+/TK-), Metabolic Activation: NONE, Method: FLUCTUATION TEST) was “active; positive”. For the same compound, the mutagenic call (Test System: MOUSE LYMPHOMA, Strain/Indicator: L5178Y (TK+/TK-), Metabolic Activation: NONE, Method: SUSPENSION/PLATE) was “active; positive”, the mutagenic call (Test System: Mouse lymphoma, Strain/Indicator: L5178Y (tk+/tk-), Metabolic Activation: None, Method: Suspension/plate) was “active; positive” and the mutagenic call (Test System: Mouse lymphoma, Strain/Indicator: L5178Y (tk+/tk-), Metabolic Activation: Rat, Liver, S-9, Aroclor 1254, Method: Suspension/plate) was “active; positive”.

For `Cl.Cl.[Cr].c1ccc(-c2ccccn2)nc1.c1ccc(-c2ccccn2)nc1`, the mutagenic call [1] was “active; positive”.

`CC1(C)CC(N)CC(C)(CN)C1` (centres undefined) was tested, and the mutagenic call [2] was “inactive; negative”, the mutagenic call (Test System: AMES SALMONELLA TYPHIMURIUM, Strain/Indicator: TA98, Metabolic Activation: RAT, LIVER, S-9, PCB, Method: PREINCUBATION) was “inactive; negative” and the mutagenic call [3] was “inactive; negative”. The mutagenic call (Test System: AMES SALMONELLA TYPHIMURIUM, Strain/Indicator: TA100, Metabolic Activation: RAT, LIVER, S-9, PCB, Method: PREINCUBATION) was “inactive; negative”.

In the case of `ONc1ccc(I)cc1`, the mutagenic call (Test System: E. COLI, Strain/Indicator: WP2 UVRA, Metabolic Activation: NONE, Method: FLUCTUATION TEST) is reported as “inactive; negative”.

In the case of `N=NCCCO`, the mutagenic call [4] is reported as “active; positive”, the mutagenic call (Test System: E. COLI, Strain/Indicator: WP2, Metabolic Activation: NONE, Method: STANDARD PLATE) is reported as “active; positive” and the mutagenic call (Test System: E. COLI, Strain/Indicator: WP2 UVRA, Metabolic Activation: NONE, Method: STANDARD PLATE) is reported as “active; positive”.

In the case of `ClC1=C(Cl)C2(Cl)C3C(Cl)C(Cl)CC3C1(Cl)C2(Cl)Cl` (centres undefined), the mutagenic call (Test System: AMES SALMONELLA TYPHIMURIUM, Strain/Indicator: TA98, Metabolic Activation: HAMSTER, LIVER, S-9, AROCLOR 1254 (5, 10 OR 30%), Method: PREINCUBATION) is reported as “inactive; negative”, the mutagenic call [2] is reported as “inactive; negative” and the mutagenic call (Test System: AMES SALMONELLA TYPHIMURIUM, Strain/Indicator: TA98, Metabolic Activation: RAT, LIVER, S-9, AROCLOR 1254 (5, 10 OR 30%), Method: PREINCUBATION) is reported as “inactive; negative”. For the same compound, the mutagenic call [5] was “active; positive”, the mutagenic call (Test System: AMES SALMONELLA TYPHIMURIUM, Strain/Indicator: TA100, Metabolic Activation: NONE, Method: DESICCATOR) was “active; positive” and the mutagenic call [3] was “inactive; negative”. The mutagenic call [6] was “active; positive” and the mutagenic call (Test System: CHINESE HAMSTER V-79, Strain/Indicator: V-79/OUABAIN, Metabolic Activation: NONE, Method: STANDARD PLATE) was “active; positive”.

In the case of `O=C1c2cc(O)cc(O)c2C(=O)c2c(O)cc(CO)cc21`, the mutagenic call (Test System: AMES SALMONELLA TYPHIMURIUM, Strain/Indicator: TA1537, Metabolic Activation: RAT, LIVER, S-9, PCB, Method: STANDARD PLATE) is reported as “active; positive” and the mutagenic call (Test System: AMES SALMONELLA TYPHIMURIUM, Strain/Indicator: TA1537, Metabolic Activation: RAT, LIVER, S-9, POLYCHLORINATED BIPHENYLS, Method: STANDARD PLATE) is reported as “active; positive”.

For `CNC(=O)Oc1cccc2c1OC(C)(C)O2`, the mutagenic call (End Point: IN VIVO MICRONUCLEUS, Test System: BONE MARROW POLYCHROMATIC ERYTHROCYTES, Species: RABBIT, Strain/Sex: HYBRID HYLA/MALE, FEMALE, Route: ORAL (GAVAGE)) was “inactive; negative”, the mutagenic call (End Point: In vitro Chromosomal aberrations, Test System: Human lymphocytes, Metabolic Activation: Activation by unspecified source) was “active; positive” and the mutagenic call (End Point: In vitro Chromosomal aberrations, Test System: Human lymphocytes, Metabolic Activation: None) was “inactive; negative”.

With `COc1ccccc1CC1CO1` (centres undefined) the mutagenic call [3] was “active; positive”, the mutagenic call [1] was “active; positive” and the mutagenic call (Test System: AMES SALMONELLA TYPHIMURIUM, Strain/Indicator: TA1535, Metabolic Activation: NONE, Method: PREINCUBATION) was “active; positive”. The mutagenic call [4] was “active; positive”.

`Cn1cnc([N+](=O)[O-])c1-c1ccccc1` was tested, and the mutagenic call [1] was “inactive; negative”.

In the case of `Clc1ccc(C(Cl)(Cl)Cl)cc1Cl`, the mutagenic call (Test System: AMES SALMONELLA TYPHIMURIUM, Strain/Indicator: TA98, Metabolic Activation: HAMSTER, LIVER, S-9, AROCLOR 1254 (30%), Method: PREINCUBATION) is reported as “active; positive”, the mutagenic call [2] is reported as “inactive; negative” and the mutagenic call (Test System: AMES SALMONELLA TYPHIMURIUM, Strain/Indicator: TA98, Metabolic Activation: RAT, LIVER, S-9, AROCLOR 1254 (30%), Method: PREINCUBATION) is reported as “active; positive”. For the same compound, the mutagenic call [5] was “active; positive”, the mutagenic call [3] was “inactive; negative” and the mutagenic call [6] was “active; positive”.

In the case of `C[C-](C)[N+](=O)[O-]`, the mutagenic call [2] is reported as “active; positive”, the mutagenic call (Test System: AMES SALMONELLA TYPHIMURIUM, Strain/Indicator: TA98, Metabolic Activation: RAT, LIVER, S-9, AROCLOR 1254, Method: PREINCUBATION) is reported as “active; positive” and the mutagenic call [3] is reported as “active; positive”. The mutagenic call (Test System: AMES SALMONELLA TYPHIMURIUM, Strain/Indicator: TA100, Metabolic Activation: RAT, LIVER, S-9, AROCLOR 1254, Method: PREINCUBATION) was “active; positive”, the mutagenic call (Test System: AMES SALMONELLA TYPHIMURIUM, Strain/Indicator: TA100, Metabolic Activation: RAT, LIVER, S-9, AROCLOR, Method: PREINCUBATION) was “active; positive” and the mutagenic call (Test System: AMES SALMONELLA TYPHIMURIUM, Strain/Indicator: TA102, Metabolic Activation: NONE, Method: PREINCUBATION) was “active; positive”. For the same compound, the mutagenic call (Test System: AMES SALMONELLA TYPHIMURIUM, Strain/Indicator: TA102, Metabolic Activation: RAT, LIVER, S-9, AROCLOR 1254, Method: PREINCUBATION) was “active; positive”, the mutagenic call (Test System: AMES SALMONELLA TYPHIMURIUM, Strain/Indicator: TA102, Metabolic Activation: RAT, LIVER, S-9, AROCLOR, Method: PREINCUBATION) was “active; positive” and the mutagenic call (Test System: UDS CHINESE HAMSTER V-79 CELLS, Metabolic Activation: NONE, Method: AUTORADIOGRAPHY) was “active; positive”. For the same compound, the mutagenic call (Test System: UDS CHINESE HAMSTER V-79 CELLS, Strain/Indicator: V-79-MZ/CYTIDINE INCORPORATION, Metabolic Activation: NONE, Method: AUTORADIOGRAPHY) was “inactive; negative”, the mutagenic call (Test System: UDS CHINESE HAMSTER V-79 CELLS, Strain/Indicator: V-79-RHST20/CYTIDINE INCORPORATION, Metabolic Activation: NONE, Method: AUTORADIOGRAPHY) was “inactive; negative” and the mutagenic call (Test System: UDS CHINESE HAMSTER V-79 CELLS, Strain/Indicator: V-79-RHSTA/CYTIDINE INCORPORATION, Metabolic Activation: NONE, Method: AUTORADIOGRAPHY) was “inactive; negative”. For the same compound, the mutagenic call (Test System: UDS CHINESE HAMSTER V-79 CELLS, Strain/Indicator: V-79-RPST-IV/CYTIDINE INCORPORATION, Metabolic Activation: NONE, Method: AUTORADIOGRAPHY) was “active; positive”, the mutagenic call (Test System: UDS HUMAN HEPATOCYTES, Strain/Indicator: THY INCORP, Metabolic Activation: NONE, Method: AUTORADIOGRAPHY) was “active; positive” and the mutagenic call (Test System: UDS MOUSE HEPATOCYTES, Strain/Indicator: THY INCORP, Metabolic Activation: NONE, Method: AUTORADIOGRAPHY) was “active; positive”. The mutagenic call (Test System: UDS RAT HEPATOCYTES, Strain/Indicator: THY INCORP, Metabolic Activation: NONE, Method: AUTORADIOGRAPHY) was “active; positive”.

In the case of `O=NN(C1CCCCC1)C1CCCCC1`, the mutagenic call (End Point: IN VITRO MICRONUCLEUS, Test System: HUMAN LYMPHOCYTES, Metabolic Activation: NONE) is reported as “active; positive”.
